Experimental data published in patent US20170080087A1, “Combination Therapies for Treating Her2-Positive Cancers that are Resistant to Her2-Targeted Therapies” (MERRIMACK PHARMACEUTICALS, INC., priority 2014, published 2017).

Tests used:
[1] = system: BT-474-M3 breast cancer cells; experiment: BT-474-M3 breast cancer xenograft after failure to respond to T-DM1; type: in vivo, mice
Protocol: The response to the MM-302 and trastuzumab combination after failure to respond to T-DM1 was evaluated in the BT-474-M3 breast cancer xenograft model.
To obtain the BT-474-M3 HER2-overexpressing human breast cancer cell line, BT-474 cells (ATCC® HTB-20™) were passaged twice through mice with the fastest growing two tumors out of ten selected for ex-vivo propagation during each round of selection. Tumors were excised and cultured ex-vivo to obtain the M3 sub-line that was verified by SNP analysis. (see Noble, Cancer Chemother. Pharmacol. 2009 64:741-51).
Mice were inoculated with BT-474-M3 breast cancer cells (15×10^6; into the mammary fat pad). When tumor volumes reached about 360 mm^3, mice were treated with T-DM1 at either 1, 2, or 4 mg/kg (q1w) (white circles). […] At day 55, the mice were switched from T-DM1 treatment to the combination of MM-302 (3 mg/kg, q1w for a total of 3 doses; day 55, 62 and 69) and trastuzumab (at a loading dose of 8 mg/kg followed by 6 mg/kg q1w) (black squares). Changes in tumor volume as well as in mouse weight were monitored twice a week.

[2] = system: human cardiomyocytes; experiment: Binding and uptake into human cardiomyocytes; type: cell-based; details: compared with MM-302 and untargeted pegylated liposomal doxorubicin
From the text: Additionally, the number of HER2 receptors needed per cell to optimize the binding of MM-302 is approximately 200,000 HER2 receptors per cell. […] The primary mechanism of action of MM-302 is the use of the HER2 protein to selectively deliver doxorubicin into tumor cells that express greater than approximately 200,000 HER2 receptors per cell.

T-DM1
tumor response to single agent ([1]; T-DM1 1, 2 or 4 mg/kg q1w): failed to respond | slope of tumor volume curve (linear regression) ([1]; days 0-55, during T-DM1 treatment): positive slope

COc1cccc2c1C(=O)c1c(O)c3c(c(O)c1C2=O)C[C@@](O)(C(=O)CO)C[C@@H]3O[C@H]1C[C@H](N)[C@H](O)[C@H](C)O1 [free doxorubicin, (8S,10S)-10-(4-amino-5 hydroxy-6-methyl-tetrahydro-2H-pyran-2-yloxy)-6,8,11-trihydroxy-8-(2-hydroxyacetyl)-1-methoxy-7,8,9,10-tetrahydrotetracene-5,12-dione]
level of uptake into human cardiomyocytes [2]: relatively much higher
